Results on seven molecules are retold here after patent US5994366A, “Tetrahydroimidazo[2,1-A]isoquinoline derivatives” (Akzo Nobel NV, priority 1997, dated 1999).

The structures appear in SMILES notation. Where a name gives a salt, the structure may show the parent alone.

What all share (format): biochemical
Conditions in all cases: in vitro

The target in one experiment is noradrenaline reuptake. Kind of experiment: noradrenaline (NUP) reuptake blockade. The method, then:
(§1) Measurement of dopamine (DUP), serotonin (SUP) and noradrenaline NUP) reuptake blockade was carried out using the methods described in Neuropharmacology Vol. 27, No. 3, pp. 251-260, 1988 and results are presented in Table 1 below.

The next experiment concerns the target serotonin reuptake. As to the kind of experiment: serotonin (SUP) reuptake blockade. The method, then:
as §1

The target of a further experiment is dopamine reuptake. Kind of experiment: dopamine (DUP) reuptake blockade. How it is done:
as §1

As to `Fc1ccc(C2CN3CCN=C3c3ccccc32)cc1` (single isomer, unassigned; (+)) [Example 7, (+)-6-(4-Fluorophenyl)-2,3,5,6-tetrahydroimidazo[2,1-a]isoquinoline (E)-2-butenedioate (1:1) salt], the “NUP (pKi)” value at noradrenaline reuptake came to 7.75. Moreover, the “SUP (pKi)” value at serotonin reuptake was 6.25. On dopamine reuptake, the “DUP (pKi)” value came to 6.45.
Turning to `Clc1ccc(C2CN3CCN=C3c3ccccc32)cc1` (single isomer, unassigned; (-)) [Example 3, (-)-6-(4-chlorophenyl)-2,3,5,6-tetrahydroimidazo[2,1-a]isoquinoline (E)-2-butenedioate (1:1) salt], the “NUP (pKi)” value at noradrenaline reuptake is listed as 8.1. The “SUP (pKi)” value on serotonin reuptake came out at 7.3. In addition, the “DUP (pKi)” value on dopamine reuptake is on record as 7.15.
On to `Cc1ccc(C2CN3CCN=C3c3ccccc32)cc1` (racemic) [Example 2c, (rac)-2,3,5,6-Tetrahydro-6-(4-methylphenyl)imidazo[2,1-a]isoguinoline (Z)-2-butenedioate (1:1) salt], for which the “NUP (pKi)” value on noradrenaline reuptake was 7.75. Further, the “SUP (pKi)” value on serotonin reuptake stood at 6.9. Also, on dopamine reuptake, the “DUP (pKi)” value worked out at 7.05.
On the same counts, the results for `Clc1ccc(C2CN3CCN=C3c3ccccc32)cc1` (single isomer, unassigned; (+)) [Example 4, (+)-6-(4-Chlorophenyl)-2,3,5,6-tetrahydroimidazo[2,1-a]isoquinoline (E)-2-butenedioate (1:1) salt] are 8.15, 7.0 and 7.2.
As to `Cl.Clc1ccc(C2CN3CCN=C3c3ccccc32)cc1` (racemic) [Example 2a, (rac)6-(4-chlorophenyl)-2,3,5,6-tetrahydroimidazo[2,1-a]isoquinoline hydrochloride], the “NUP (pKi)” value at noradrenaline reuptake worked out at 7.9. Moreover, at serotonin reuptake, the “SUP (pKi)” value came to 7.4. Besides, the “DUP (pKi)” value at dopamine reuptake was 7.15.
For the molecule `Fc1ccc(C2CN3CCN=C3c3ccccc32)cc1` (racemic) [Example 2b, (rac)-6-(4-Fluorophenyl)-2,3,5,6-tetrahydroimidazo[2,1-a]isoquinoline], on noradrenaline reuptake, the “NUP (pKi)” value turned out to be 7.65. Moreover, on serotonin reuptake, the “SUP (pKi)” value is 7.5. For the same molecule, the “DUP (pKi)” value on dopamine reuptake is given as 6.5.
On the same counts, the results for `Fc1ccc(C2CN3CCN=C3c3ccccc32)cc1` (single isomer, unassigned; (-)) [Example 6, (-)-6-(4-fluorophenyl)-2,3,5,6-tetrahydroimidazo[2,1-a]isoquinoline (E)-2-butenedioate (1:1) salt] are 7.5, 7.9 and 6.6.
